Data: paper PMC8139662 (Journal of Virology, 2021)
Values joined by “and” are separate entries in the source; they are usually repeats but may differ in a detail not shown here. Equal entries are not always repeated. Where two headings read alike, the source gives them in different places.

Columns and labels:
[1] = system: polarized human airway epithelial cultures (HAEC)
SARS-CoV-2 USA-WA1/2020 [2] = type: cell-based; conditions: for protection from ring syncytium formation (CPE): at 0.33 μM and above; for protection from ring syncytium formation (CPE) / overall number of infected foci: microscopy; for overall number of infected foci: A549+ACE2, drug treatment; for protection from virus-induced CPE: at 1 μM (PF-00835231: 1 μM and above)
COVID-19 patients = conditions: patients with more advanced infection, i.v.; cited from earlier work
SARS-CoV-2 USA-WA1/2020 [3] = type: cell-based; conditions: for SARS-CoV-2 infectious titers in apical washes: 10 μM basolateral, washes every 12 h up to 72 h; for number of infected (N-expressing) cells: 10 μM, 72-h endpoint
BCi-NS1.1 cells = conditions: 48 h, dose range up to 10 μM
in vitro = conditions: human
[4] = system: SARS-CoV-2 USA/NYU-VC-003/2020; type: cell-based
SARS-CoV-2 [5] = conditions: Vero E6 cells; cited from earlier work
SARS-CoV-2 USA-WA1/2020 [6] = assay: Time-of-drug-addition assay in A549+ACE2 cells; type: cell-based; conditions: A549+ACE2, USA-WA1/2020
[7] = system: panel of diverse coronavirus 3CL^pro; conditions: alpha-, beta- and gammacoronavirus 3CLpro panel; cited from earlier work
SARS-CoV-2 [8] = conditions: PF-00835231 with remdesivir, in vitro; cited from earlier work
[9] = PF-00835231 versus GC-376 set (Table 2)

SMILES: CCC(CC)COC(=O)[C@H](C)N[P@](=O)(OC[C@H]1O[C@@](C#N)(c2ccc3c(N)ncnn23)[C@H](O)[C@@H]1O)Oc1ccccc1 [remdesivir, reference compound]
- effect on morphology of HAEC (histology) [1]: Neither drug caused measurable adverse effects on the morphology of the cultures
- effect on transepithelial resistance (TEER) over time [1]: negatively impacted TEER over time, albeit not statistically significantly compared to untreated cultures
- protection from ring syncytium formation (CPE) (SARS-CoV-2 USA-WA1/2020 [2]; A549+ACE2): fully protected
- overall number of infected foci (SARS-CoV-2 USA-WA1/2020 [2]): decreased the overall number of infected foci
- patients with benefit (COVID-19 patients): 68%
- SARS-CoV-2 infectious titers in apical washes (SARS-CoV-2 USA-WA1/2020 [3]): viral titers below the limit of detection at most time points
- number of infected (N-expressing) cells (SARS-CoV-2 USA-WA1/2020 [3]): the number of infected cells was significantly reduced
- ATP levels (cell viability) (BCi-NS1.1 cells): caused a reduction in ATP levels compared to carrier control, albeit not statistically significantly
- CC50 (in vitro): > 10000 nM

SMILES: CC(C)C[C@H](NC(=O)OCc1ccccc1)C(=O)N[C@@H](CC1CCNC1=O)C(O)S(=O)(=O)[O-].[Na+] (stereo partly drawn) [GC-376, reference compound]
- EC90 [4]: 2730 nM
- EC50 [4, 9]: 529 nM
- EC90 (SARS-CoV-2 USA-WA1/2020 [2]): 4550 nM and 5250 nM
- number and size of viral foci (SARS-CoV-2 USA-WA1/2020 [2]; 1 μM, A549+ACE2): decreased the number and size of viral foci
- protection from virus-induced CPE (SARS-CoV-2 USA-WA1/2020 [2]): unable to protect cells from virus-induced CPE
- EC50 (SARS-CoV-2 [5]): 900 nM
- CC50 (A549^+ACE2 cells): > 10000 nM
- minimum treatment dose that led to undetectable infection levels (SARS-CoV-2 USA-WA1/2020 [6]): 10 µM

SMILES: COc1cccc2[nH]c(C(=O)N[C@@H](CC(C)C)C(=O)N[C@@H](C[C@@H]3CCNC3=O)C(=O)CO)cc12 [PF-00835231]
- EC90 [4]: 591 nM and 1170 nM
- EC50 [4, 9]: 326 nM
- EC50 ([4]; PF-00835231 versus remdesivir set (Table 1), n = 3): 184 nM
- inhibition of 3CLpro [7]: potent inhibition
- effect on morphology of HAEC (histology) [1]: Neither drug caused measurable adverse effects on the morphology of the cultures
- change in antiviral efficacy when blocking MDR1 (SARS-CoV-2 USA-WA1/2020 [2]): no changes in antiviral efficacy when blocking MDR1 activity
- protection from ring syncytium formation (CPE) (SARS-CoV-2 USA-WA1/2020 [2]; A549+ACE2): fully protected
- protection from virus-induced CPE (SARS-CoV-2 USA-WA1/2020 [2]): fully protected
- overall number of infected foci (SARS-CoV-2 USA-WA1/2020 [2]): decreased the overall number of infected foci
- SARS-CoV-2 infectious titers in apical washes (SARS-CoV-2 USA-WA1/2020 [3]): viral titers below the limit of detection at most time points
- number of infected (N-expressing) cells (SARS-CoV-2 USA-WA1/2020 [3]): the number of infected cells was significantly reduced
- change in antiviral efficacy when blocking MDR1 (SARS-CoV-2 USA-WA1/2020 [3]; […], HAEC, 0.025 or 0.5 μM PF-00835231): no changes in antiviral efficacy when blocking MDR1 activity
- EC50 (SARS-CoV-2 [5]): 270 nM
- antiviral activity against SARS-CoV-2 (SARS-CoV-2 [5]): high micromolar levels
- effect of inhibiting MDR1 function on antiviral efficacy (SARS-CoV-2 [5]): significantly increased antiviral efficacy
- ATP levels (cell viability) (BCi-NS1.1 cells): did not detect a decrease in ATP
- CC50 (A549^+ACE2 cells): > 10000 nM
- minimum treatment dose that led to undetectable infection levels (SARS-CoV-2 USA-WA1/2020 [6]): 3 µM
- combination effect with remdesivir in inhibiting SARS-CoV-2 (SARS-CoV-2 [8]): significant synergistic effects
